Data as given in patent publication US12275731B2, “Azaindole inhibitors of wild-type and mutant forms of LRRK2” (DANA-FARBER CANCER INSTITUTE, INC., priority 2018, dated 2025).

Tests used:
Assay in all cases: KinomeScan profiling
Format in all cases: binding
[1] = target: T1, ABL1(F317I)-nonphosphorylated (Homo sapiens, UniProt P00519, F317I); settings: read-out: % control
T1 construct: purchased KinomeScan®
In short: (§1)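 Compounds were screened at 1 μM in DMSO across a 468-kinase KinomeScan panel. Binding was expressed as % control, scaled between a positive control (0%) and DMSO (100%) using luminescence signal. A value under 35% counted as active.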

[2] = target: BRK (Homo sapiens, UniProt Q13882); settings: read-out: % control
Chain of BRK (Q13882 whole entry): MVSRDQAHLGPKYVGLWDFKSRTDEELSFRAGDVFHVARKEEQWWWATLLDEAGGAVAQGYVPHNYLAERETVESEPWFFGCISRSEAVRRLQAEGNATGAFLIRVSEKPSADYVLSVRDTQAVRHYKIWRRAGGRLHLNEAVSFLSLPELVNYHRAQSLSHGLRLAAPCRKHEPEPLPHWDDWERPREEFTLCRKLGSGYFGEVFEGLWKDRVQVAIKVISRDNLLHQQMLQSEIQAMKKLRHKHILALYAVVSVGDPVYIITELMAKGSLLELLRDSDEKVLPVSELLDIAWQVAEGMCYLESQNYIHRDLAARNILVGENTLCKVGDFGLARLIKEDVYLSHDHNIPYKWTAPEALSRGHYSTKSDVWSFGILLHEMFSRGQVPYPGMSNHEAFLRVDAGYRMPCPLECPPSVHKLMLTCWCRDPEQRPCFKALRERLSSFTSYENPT
In short: as §1

[3] = target: CLK1 (Homo sapiens, UniProt P49759); settings: CLK1, 1 μM; read-out: % control
Chain of CLK1 (P49759 whole entry): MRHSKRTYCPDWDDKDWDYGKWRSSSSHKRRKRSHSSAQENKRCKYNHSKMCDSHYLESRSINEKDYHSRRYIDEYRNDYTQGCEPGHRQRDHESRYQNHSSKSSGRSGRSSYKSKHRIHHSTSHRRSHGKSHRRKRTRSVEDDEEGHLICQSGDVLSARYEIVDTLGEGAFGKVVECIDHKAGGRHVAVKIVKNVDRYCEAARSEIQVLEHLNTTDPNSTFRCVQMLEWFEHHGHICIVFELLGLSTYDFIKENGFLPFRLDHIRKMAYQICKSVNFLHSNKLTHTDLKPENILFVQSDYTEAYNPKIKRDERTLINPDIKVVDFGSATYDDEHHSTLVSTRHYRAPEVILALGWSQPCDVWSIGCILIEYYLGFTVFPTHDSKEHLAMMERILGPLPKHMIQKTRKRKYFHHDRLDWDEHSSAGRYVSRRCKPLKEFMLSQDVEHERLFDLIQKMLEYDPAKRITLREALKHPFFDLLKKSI
In short: as §1

[4] = target: CLK3 (Homo sapiens, UniProt P49761); settings: CLK3, 1 μM; read-out: % control
Chain of CLK3 (P49761 whole entry): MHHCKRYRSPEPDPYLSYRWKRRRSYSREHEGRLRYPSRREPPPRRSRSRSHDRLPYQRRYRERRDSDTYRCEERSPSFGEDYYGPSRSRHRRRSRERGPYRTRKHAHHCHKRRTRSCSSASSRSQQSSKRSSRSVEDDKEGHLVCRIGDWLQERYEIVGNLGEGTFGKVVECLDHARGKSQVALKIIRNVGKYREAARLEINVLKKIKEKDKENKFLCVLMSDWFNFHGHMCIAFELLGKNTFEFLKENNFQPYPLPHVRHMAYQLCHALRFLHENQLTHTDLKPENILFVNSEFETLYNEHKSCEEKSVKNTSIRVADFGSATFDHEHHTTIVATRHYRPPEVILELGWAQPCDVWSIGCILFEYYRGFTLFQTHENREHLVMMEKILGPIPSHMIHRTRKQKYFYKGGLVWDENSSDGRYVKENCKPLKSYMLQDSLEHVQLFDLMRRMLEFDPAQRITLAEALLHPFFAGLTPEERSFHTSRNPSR
In short: as §1

[5] = target: FYN (Homo sapiens, UniProt P06241); settings: read-out: % control
Chain of FYN (P06241 whole entry): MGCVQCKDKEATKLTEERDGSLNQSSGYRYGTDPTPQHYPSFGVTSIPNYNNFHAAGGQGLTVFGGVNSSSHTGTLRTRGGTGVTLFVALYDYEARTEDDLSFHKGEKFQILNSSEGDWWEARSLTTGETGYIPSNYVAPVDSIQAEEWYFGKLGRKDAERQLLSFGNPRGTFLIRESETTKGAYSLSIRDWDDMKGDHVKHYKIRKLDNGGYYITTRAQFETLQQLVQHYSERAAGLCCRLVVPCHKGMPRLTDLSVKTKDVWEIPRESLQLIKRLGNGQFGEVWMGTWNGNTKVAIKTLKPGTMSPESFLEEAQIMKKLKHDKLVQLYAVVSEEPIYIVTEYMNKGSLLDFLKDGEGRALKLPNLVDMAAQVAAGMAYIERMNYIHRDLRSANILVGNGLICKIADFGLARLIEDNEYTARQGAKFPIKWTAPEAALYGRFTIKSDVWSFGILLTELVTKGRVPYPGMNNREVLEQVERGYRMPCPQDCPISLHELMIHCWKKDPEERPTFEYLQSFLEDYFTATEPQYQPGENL
In short: as §1

[6] = target: T2, ICK (Homo sapiens, UniProt Q9UPZ9); settings: read-out: % control
T2 sequence (Q9UPZ9 1-632): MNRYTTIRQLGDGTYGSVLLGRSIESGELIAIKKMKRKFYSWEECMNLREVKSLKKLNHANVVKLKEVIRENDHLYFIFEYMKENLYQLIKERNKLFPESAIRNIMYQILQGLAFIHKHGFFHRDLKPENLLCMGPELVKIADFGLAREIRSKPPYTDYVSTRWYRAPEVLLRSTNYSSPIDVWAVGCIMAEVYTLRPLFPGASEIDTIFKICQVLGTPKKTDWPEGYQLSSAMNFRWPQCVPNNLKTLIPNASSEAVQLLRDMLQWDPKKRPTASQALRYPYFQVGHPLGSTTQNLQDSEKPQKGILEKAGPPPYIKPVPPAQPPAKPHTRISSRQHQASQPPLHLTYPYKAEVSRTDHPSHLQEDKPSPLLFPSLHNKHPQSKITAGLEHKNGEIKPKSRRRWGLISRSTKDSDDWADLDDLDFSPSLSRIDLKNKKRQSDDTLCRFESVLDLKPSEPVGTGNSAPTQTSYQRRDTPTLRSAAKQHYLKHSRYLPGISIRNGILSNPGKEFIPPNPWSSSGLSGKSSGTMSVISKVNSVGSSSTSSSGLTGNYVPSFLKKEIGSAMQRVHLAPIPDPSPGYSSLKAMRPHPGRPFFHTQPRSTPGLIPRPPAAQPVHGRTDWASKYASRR
In short: as §1

[7] = target: T3, JNK1 (Homo sapiens, UniProt P45983); settings: JNK1, 1 μM; read-out: % control
T3 construct: purchased KinomeScan®
T3 sequence (P45983 whole entry): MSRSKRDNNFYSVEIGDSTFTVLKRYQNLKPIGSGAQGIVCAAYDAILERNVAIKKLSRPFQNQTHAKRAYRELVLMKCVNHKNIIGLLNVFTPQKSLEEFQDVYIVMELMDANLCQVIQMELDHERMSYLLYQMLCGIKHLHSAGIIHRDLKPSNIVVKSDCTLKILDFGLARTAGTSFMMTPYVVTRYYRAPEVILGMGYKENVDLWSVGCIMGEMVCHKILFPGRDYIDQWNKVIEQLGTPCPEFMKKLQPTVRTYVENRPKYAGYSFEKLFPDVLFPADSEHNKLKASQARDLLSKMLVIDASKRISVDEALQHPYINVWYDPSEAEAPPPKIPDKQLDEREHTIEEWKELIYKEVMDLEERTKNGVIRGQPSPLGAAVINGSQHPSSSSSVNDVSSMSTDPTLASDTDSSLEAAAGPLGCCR
In short: as §1

[8] = target: MEK2 (Homo sapiens, UniProt P36507); settings: MEK2, 1 μM; read-out: % control
Chain of MEK2 (P36507 whole entry): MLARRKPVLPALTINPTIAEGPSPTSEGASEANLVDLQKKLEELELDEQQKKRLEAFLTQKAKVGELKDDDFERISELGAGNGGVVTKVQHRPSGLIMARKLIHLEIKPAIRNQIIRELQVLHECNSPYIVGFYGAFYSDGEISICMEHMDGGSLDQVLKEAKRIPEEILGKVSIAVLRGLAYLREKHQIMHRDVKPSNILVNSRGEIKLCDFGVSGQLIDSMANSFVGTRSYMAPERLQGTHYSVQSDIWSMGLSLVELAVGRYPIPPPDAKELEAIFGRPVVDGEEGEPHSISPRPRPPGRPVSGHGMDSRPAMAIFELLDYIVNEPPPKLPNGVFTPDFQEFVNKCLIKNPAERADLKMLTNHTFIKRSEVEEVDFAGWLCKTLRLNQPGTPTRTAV
In short: as §1

[9] = target: T4, NEK10 (Homo sapiens, UniProt Q6ZWH5); settings: NEK10, 1 μM; read-out: % control
T4 sequence (Q6ZWH5 1-1172): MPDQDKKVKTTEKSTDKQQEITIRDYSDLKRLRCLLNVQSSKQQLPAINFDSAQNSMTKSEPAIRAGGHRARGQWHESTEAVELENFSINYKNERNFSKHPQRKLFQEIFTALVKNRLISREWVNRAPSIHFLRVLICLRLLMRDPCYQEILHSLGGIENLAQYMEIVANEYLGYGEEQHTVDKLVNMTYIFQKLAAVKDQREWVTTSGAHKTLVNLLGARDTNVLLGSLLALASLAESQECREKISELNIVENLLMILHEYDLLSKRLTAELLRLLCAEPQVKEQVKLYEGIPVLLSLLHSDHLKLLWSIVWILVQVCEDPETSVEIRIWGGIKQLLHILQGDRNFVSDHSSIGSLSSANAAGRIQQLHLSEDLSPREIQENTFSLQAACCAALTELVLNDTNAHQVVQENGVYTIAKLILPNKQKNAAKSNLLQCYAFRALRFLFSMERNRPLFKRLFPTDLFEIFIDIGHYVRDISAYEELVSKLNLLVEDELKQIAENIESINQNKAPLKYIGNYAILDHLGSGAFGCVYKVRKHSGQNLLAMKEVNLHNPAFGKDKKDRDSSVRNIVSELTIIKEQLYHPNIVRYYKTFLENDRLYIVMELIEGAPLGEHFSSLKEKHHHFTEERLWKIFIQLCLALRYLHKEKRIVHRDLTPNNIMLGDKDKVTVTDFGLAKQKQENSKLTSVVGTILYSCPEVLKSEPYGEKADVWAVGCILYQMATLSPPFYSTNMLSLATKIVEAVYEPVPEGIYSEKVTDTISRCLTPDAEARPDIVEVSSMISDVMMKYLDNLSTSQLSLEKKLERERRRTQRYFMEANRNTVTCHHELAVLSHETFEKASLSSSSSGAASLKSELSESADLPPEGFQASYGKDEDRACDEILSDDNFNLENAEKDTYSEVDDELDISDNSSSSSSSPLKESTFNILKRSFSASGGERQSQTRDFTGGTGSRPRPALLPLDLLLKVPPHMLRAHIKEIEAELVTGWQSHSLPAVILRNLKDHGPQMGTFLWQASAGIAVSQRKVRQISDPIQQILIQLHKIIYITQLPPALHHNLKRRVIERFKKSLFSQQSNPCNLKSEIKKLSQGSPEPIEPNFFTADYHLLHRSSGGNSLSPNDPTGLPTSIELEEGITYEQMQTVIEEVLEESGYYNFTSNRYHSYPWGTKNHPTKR
In short: as §1

[10] = target: T5, PIK3CA(E545A) (Homo sapiens, UniProt P42336, E545A); settings: read-out: % control
T5 construct: purchased KinomeScan® (panel service)
In short: as §1

[11] = target: T6, PIK3CA(M1043I) (Homo sapiens, UniProt P42336, M1043I); settings: read-out: % control
T6 construct: purchased KinomeScan® (panel service)
In short: as §1

[12] = target: T7, PIP5K1C (Homo sapiens, UniProt O60331); settings: read-out: % control
T7 construct: purchased KinomeScan® (panel service)
In short: as §1

[13] = target: RIPK2 (Homo sapiens, UniProt O43353); settings: RIPK2, 1 μM; read-out: % control
Chain of RIPK2 (O43353 whole entry): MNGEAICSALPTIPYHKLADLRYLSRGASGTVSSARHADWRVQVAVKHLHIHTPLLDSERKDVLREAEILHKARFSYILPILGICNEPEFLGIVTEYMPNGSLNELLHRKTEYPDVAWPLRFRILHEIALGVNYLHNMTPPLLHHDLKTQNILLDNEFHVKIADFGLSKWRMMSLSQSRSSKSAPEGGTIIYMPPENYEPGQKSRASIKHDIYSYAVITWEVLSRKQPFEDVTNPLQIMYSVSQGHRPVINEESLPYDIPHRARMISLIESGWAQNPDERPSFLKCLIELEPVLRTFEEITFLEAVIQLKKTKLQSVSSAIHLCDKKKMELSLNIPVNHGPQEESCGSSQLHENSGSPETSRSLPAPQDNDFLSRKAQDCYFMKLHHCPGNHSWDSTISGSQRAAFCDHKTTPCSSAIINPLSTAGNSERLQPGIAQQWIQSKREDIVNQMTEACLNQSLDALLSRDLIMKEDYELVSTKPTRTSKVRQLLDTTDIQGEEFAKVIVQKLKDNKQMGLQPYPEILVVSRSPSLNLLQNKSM
In short: as §1

T1 sequence (P00519 whole entry F317I): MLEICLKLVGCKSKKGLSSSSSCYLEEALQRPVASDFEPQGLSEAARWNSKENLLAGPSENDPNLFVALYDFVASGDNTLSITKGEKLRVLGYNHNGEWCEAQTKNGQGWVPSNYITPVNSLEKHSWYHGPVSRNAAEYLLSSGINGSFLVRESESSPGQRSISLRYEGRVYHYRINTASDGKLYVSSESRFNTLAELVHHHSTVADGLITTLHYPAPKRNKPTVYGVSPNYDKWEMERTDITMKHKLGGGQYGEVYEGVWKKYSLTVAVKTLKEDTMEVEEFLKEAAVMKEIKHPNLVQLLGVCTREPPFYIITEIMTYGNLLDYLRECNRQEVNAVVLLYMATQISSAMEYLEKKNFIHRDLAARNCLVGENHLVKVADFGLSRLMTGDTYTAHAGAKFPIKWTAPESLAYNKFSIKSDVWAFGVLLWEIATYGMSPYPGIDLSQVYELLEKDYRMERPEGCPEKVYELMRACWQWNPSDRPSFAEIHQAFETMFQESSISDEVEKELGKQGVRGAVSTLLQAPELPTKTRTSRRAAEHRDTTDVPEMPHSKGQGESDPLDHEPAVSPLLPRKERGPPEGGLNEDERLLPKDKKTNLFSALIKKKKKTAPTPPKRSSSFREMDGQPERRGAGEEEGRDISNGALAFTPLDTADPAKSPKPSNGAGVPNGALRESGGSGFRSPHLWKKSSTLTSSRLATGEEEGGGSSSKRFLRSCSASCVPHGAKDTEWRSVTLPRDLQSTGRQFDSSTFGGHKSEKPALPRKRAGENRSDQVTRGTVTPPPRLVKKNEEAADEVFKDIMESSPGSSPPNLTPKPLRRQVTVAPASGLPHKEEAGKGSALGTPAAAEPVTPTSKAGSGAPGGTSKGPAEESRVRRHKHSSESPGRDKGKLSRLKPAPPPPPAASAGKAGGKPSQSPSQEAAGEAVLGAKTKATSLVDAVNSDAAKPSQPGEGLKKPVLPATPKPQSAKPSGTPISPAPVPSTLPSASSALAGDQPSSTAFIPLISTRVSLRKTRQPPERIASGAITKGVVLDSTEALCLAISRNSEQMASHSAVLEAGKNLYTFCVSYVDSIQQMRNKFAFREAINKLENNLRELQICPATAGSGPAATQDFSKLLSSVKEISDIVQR

Row | Structure (SMILES) | remaining binding at 1 µM [1] [%] | remaining binding at 1 µM [2] [%] | remaining binding at 1 µM [3] [%] | remaining binding at 1 µM [4] [%] | remaining binding at 1 µM [5] [%] | remaining binding at 1 µM [6] [%] | remaining binding at 1 µM [7] [%] | remaining binding at 1 µM [8] [%] | remaining binding at 1 µM [9] [%] | remaining binding at 1 µM [10] [%] | remaining binding at 1 µM [11] [%] | remaining binding at 1 µM [12] [%] | remaining binding at 1 µM [13] [%]
1 | O=C(c1ccc(-c2cnc3[nH]cc(Cl)c3c2NC2CCCC2)cc1)N1CCC(N2CCOCC2)CC1 [Compound 101, (4-(3-chloro-4-(cyclopentylamino)-1H-pyrrolo[2,3-b]pyridin-5-yl)phenyl)(4-morpholinopiperidin-1-yl)methanone] | 100 | 86 | 59 | 97 | 87 | 100 | 7.1 | 87 | 100 | 98 | 100 | 57 | 100
2 | CNc1c(-c2cnn([C@H]3CCN(C(C)=O)C[C@@H]3F)c2)cnc2[nH]cc(Cl)c12 [Compound 77, 1-((3S,4S)-4-(4-(3-chloro-4-(methylamino)-1H-pyrrolo[2,3-b]pyridin-5-yl)-1H-pyrazol-1-yl)-3-fluoropiperidin-1-yl)ethan-1-one] | 100 | 95 | 84 | 88 | 94 | 35 | 1.1 | 31 | 100 | 80 | 66 | 37 | 100
3 | CNc1c(-c2ccc(C(=O)N3CCC(N4CCOCC4)CC3)cc2)cnc2[nH]cc(Cl)c12 [Compound 96, (4-(3-chloro-4-(methylamino)-1H-pyrrolo[2,3-b]pyridin-5-yl)phenyl)(4-morpholinopiperidin-1-yl)methanone] | 100 | 78 | 33 | 98 | 96 | 35 | 0.05 | 19 | 100 | 62 | 81 | 49 | 99
